The values below are quoted from earlier work in US20060014828A1 (priority 2004, published 2006).

Structures can show the parent of a compound that is named as a salt.

For the compound `NNc1nncc2ccccc12` [Hydralazine hydrochloride], the Solubility in alcohol entry is reported as “slightly soluble”, the Solubility in ether entry is “very slightly soluble” and the Solubility in water entry is reported as “soluble”.
Regarding `O=[N+]([O-])O[C@H]1CO[C@H]2[C@@H]1OC[C@H]2O[N+](=O)[O-]` [isosorbide dinitrate, 1,4,3,6-dianhydro-D-glucitol-2,5-dinitrate], the “Solubility in organic solvents such as ethanol, ether and chloroform” value was “freely soluble”; the Solubility in water entry is recorded as “sparingly soluble”.
